# Test results reported in patent US5219870A, “Omeprazole compositions designed for administration in rectum” (priority 1990, dated 1993).
# Several values for one entry are separate records, joined by “and”; a condition that tells them apart may be missing. Equal entries are not always repeated. Where two headings read alike, the source gives them in different places.
# How the values were obtained:
# [1] = Animal Experiment: serum concentration and bioavailability of OMP in rabbits (I.V., oral, rectum); format: in vivo, albino rabbits; conditions: 10 mg/kg; for bioavailability: BA (bioavailability)
# Method: Using the same method as in Reference 1, one composition using water-Soluble base was manufactured by the following formula; 20 mg OMP. 10 mg arginine and 970 mg PEG 4000, and another composition using lipid-soluble base was manufactured by the following formula; 20 mg OMP, 10 mg arginine and 970 mg Witepsol H-15.
# Object: 36 male healthy albino rabbits weighing 1.5-2.3 kg.
# Method: before fasting, feed and water were freely provided for eating and rabbits were confined to a wire-box while giving them feed in a constant condition for 4 days. After that, their fasting was made for 48 hours (during the fasting, the rabbits could freely drink 10% dextrose solution.)
# For comparison test, 4 mg/ml I.V. solution was manufactured in advance by mixing 400 mg OMP, 20 ml polyethylene glycol 4000, and 80 ml buffer solution of 0.1 mol sodium bicarbonate. 5 ml solution per rabbit was administered to its ear's vein.
# Then, through the esophagus of rabbit, Levine tube in diameter of 5 mm was inserted by 30 cm for administering oral OMP capsules wrapped in paraffin film. To reduce friction, vaseline was applied around the surface of the tube and through a syringe connected to the opposite end of the tube, 30 ml water was injected and, by the water pressure, paraffin film was broken to administer the capsule into intestine.
# As the feces of the rabbit were not completely removable even in 48-hour fasting, Levine tube having a thickness of 5 mm was used to thrust feces up to the upper part of rectum by 15 cm for the separate of administration of said two kinds of compositions. Then, inserted into the anus, was a cotton wrapped in vinyl tape having a length of 2 cm, fixed it with a clip so as to prevent any leaking of drug solution.
# By using xylene, the venous blood vessel of rabbit's ear was extended to collect some venous blood with a heparinized 3 cc syringe. Said syringe was already treated by soaking its wall with 1000 I.U. heparin. Then, 3 cc of said collected blood sample (10,000 rpm, 10 secs) was centrigued to obtain 1 ml plasma.
# Add 1 ml of said plasma sample to […] intra-standard solution, 3 ml dichloromethane, 3 ml hexaine and 2 ml of 0.1 mol sodium bicarbonate buffer solution. Then, after agitation for 30 secs, centrifuge this mixture in 2000 rpm for 5 mins to separate into organic layer (upper layer) and plasma layer (lower layer).
# Put the centrifuged test tube into ice-contained methanol to freeze the plasma layer. Thereafter, take 5 ml organic solvent from the said solution and, under reduced pressure, evaporate the organic solvent by nitrogen gas. Then add 300 μl mobile phase into the residue and after agitation for 30 secs again, centrifuge the mixture in 2000 rpm for 2 mins and conduct the assay by the HPLC analysis (injected 50 μl) through the comparison of height ratio with standard solution.
# Cmax is a peak serum concentration;
# AUC is an area under the curve describing serum concentration-time; and […]
# [2] = cited from earlier work
# [3] = OMP Stability Based Upon Kinds of Base (colour change at room temperature); conditions: Reference 1 result in words
# [4] = OMP Stability Based Upon Kinds of Stabilizer (colour change under severe condition); format: physicochemical; conditions: Reference 2 result in words
# From the text: As shown in the following table 2, PEG 4000 and Witepsol H-15 were used as bases for the manufacture of said composition; as a basic amino acid, arginine was used. The stability of said manufactured compositions was observed under a severe condition. As a diffusing medium, micro crystalline cellulose (brandname: Avicel) was used, while using sodium laurylsulfate as a releasing agent.
# [5] = rabbit, in vivo, po, serum concentration
smiles,measurement,setting,value
"COc1ccc2[nH]c([S+]([O-])Cc3ncc(C)c(OC)c3C)nc2c1 (centres unmarked) [OMP, Omeprazole]",serum concentration,"[1]; I.V., 20 mg OMP per 2 kg, 1 min, individual animals",110.0 µg/mL and 100.0 µg/mL and 91.5 µg/mL and 99.0 µg/mL
same,serum concentration,"[1]; I.V., 20 mg OMP per 2 kg, 5 min, individual animals",47.8 µg/mL and 63.3 µg/mL and 58.7 µg/mL and 56.5 µg/mL
same,serum concentration,"[1]; I.V., 20 mg OMP per 2 kg, 15 min, individual animals",23.8 µg/mL and 36.8 µg/mL and 24.5 µg/mL
same,serum concentration,"[1]; I.V., 20 mg OMP per 2 kg, 30 min, individual animals",21.0 µg/mL and 16.7 µg/mL and 16.2 µg/mL
same,serum concentration,"[1]; I.V., 20 mg OMP per 2 kg, 60 min, individual animals",9.1 µg/mL and 11.7 µg/mL and 6.5 µg/mL
same,serum concentration,"[1]; I.V., 20 mg OMP per 2 kg, 120 min, individual animals",4.6 μg/ml and 4.2 μg/ml and 4.4 μg/ml (2×)
same,serum concentration,"[1]; I.V., 20 mg OMP per 2 kg, 180 min, individual animals",2.2 µg/mL and 2.1 µg/mL and 2.0 µg/mL
same,serum concentration,"[1]; oral, 20 mg OMP per 2 kg, 1 hr, individual animals, 60 min",0.300 µg/mL and 0.492 µg/mL and 0.270 µg/mL and 0.295 µg/mL
same,serum concentration,"[1]; oral, 20 mg OMP per 2 kg, 4 hr, individual animals, 240 min",0.375 µg/mL and 0.376 µg/mL
same,serum concentration,"[1]; oral, 20 mg OMP per 2 kg, 5 hr, individual animals, 300 min",0.432 µg/mL
same,serum concentration,"[1]; oral, 20 mg OMP per 2 kg, 7 hr, individual animals, 420 min",0.450 µg/mL and 0.409 µg/mL and 0.506 µg/mL and 0.400 µg/mL
same,serum concentration,"[1]; oral, 20 mg OMP per 2 kg, 9 hr, individual animals, 540 min",0.360 µg/mL and 0.373 µg/mL and 0.365 µg/mL
same,serum concentration,"[1]; oral, 20 mg OMP per 2 kg, 11 hr, individual animals, 660 min",0.038 µg/mL and 0.070 µg/mL and 0.171 µg/mL and 0.176 µg/mL and 0.053 µg/mL
same,Tmax,"[1]; oral, 20 mg OMP per 2 kg, individual animals",5 h
same,AUC,"[1]; rabbit, in vivo, iv",33200 ng·h/mL
same,AUC,"[1]; rabbit, in vivo, iv, average",35200 ng·h/mL
same,concentration at 0.25 h,"[1]; rabbit, in vivo, iv, serum concentration",16400 ng/mL
same,serum concentration,"[1]; rabbit, in vivo, po, 4 h",0.531 µg/mL
same,AUC,"[1]; rabbit, in vivo, po",6070 ng·h/mL
same,AUC,"[1]; rabbit, in vivo, po, average",5980 ng·h/mL
same,bioavailability,"[1]; rabbit, in vivo, po",17.2%
same,bioavailability,"[1]; rabbit, in vivo, po, average",17%
same,Cmax,"[1]; rabbit, in vivo, po",591 ng/mL
same,Cmax,"[1]; rabbit, in vivo, po, average",598 ng/mL
same,concentration at 4 h,[1]; [5],591 ng/mL
same,concentration at 5 h,[1]; [5],527 ng/mL
same,concentration at 9 h,[1]; [5],356 ng/mL
same,concentration at 1 min,"[1]; rabbit, serum, iv, I.V., 20 mg OMP per 2 kg, 1 min, average, read-out: serum concentration, average",101 µg/mL
same,concentration at 1 min,"[1]; rabbit, serum, iv, I.V., 20 mg OMP per 2 kg, 1 min, individual animals, read-out: serum concentration",104 µg/mL
same,concentration at 5 min,"[1]; rabbit, serum, iv, I.V., 20 mg OMP per 2 kg, 5 min, average, read-out: serum concentration, average",54.4 µg/mL
same,concentration at 5 min,"[1]; rabbit, serum, iv, I.V., 20 mg OMP per 2 kg, 5 min, individual animals, read-out: serum concentration",45.9 µg/mL
same,concentration at 0.25 h,"[1]; rabbit, serum, iv, I.V., 20 mg OMP per 2 kg, 15 min, average, read-out: serum concentration, average",25600 ng/mL
same,concentration at 0.25 h,"[1]; rabbit, serum, iv, I.V., 20 mg OMP per 2 kg, 15 min, individual animals, read-out: serum concentration",26400 ng/mL
same,concentration at 0.5 h,"[1]; rabbit, serum, iv, I.V., 20 mg OMP per 2 kg, 30 min, average, read-out: serum concentration, average",16700 ng/mL
same,concentration at 0.5 h,"[1]; rabbit, serum, iv, I.V., 20 mg OMP per 2 kg, 30 min, individual animals, read-out: serum concentration",12800 ng/mL
same,concentration at 1 h,"[1]; rabbit, serum, iv, I.V., 20 mg OMP per 2 kg, 60 min, average, read-out: serum concentration, average",8800 ng/mL
same,concentration at 1 h,"[1]; rabbit, serum, iv, I.V., 20 mg OMP per 2 kg, 60 min, individual animals, read-out: serum concentration",7800 ng/mL
same,concentration at 2 h,"[1]; rabbit, serum, iv, I.V., 20 mg OMP per 2 kg, 120 min, average, read-out: serum concentration, average",4700 ng/mL
same,concentration at 2 h,"[1]; rabbit, serum, iv, I.V., 20 mg OMP per 2 kg, 120 min, individual animals, read-out: serum concentration",5800 ng/mL
same,concentration at 3 h,"[1]; rabbit, serum, iv, I.V., 20 mg OMP per 2 kg, 180 min, average, read-out: serum concentration, average",2100 ng/mL
same,concentration at 3 h,"[1]; rabbit, serum, iv, I.V., 20 mg OMP per 2 kg, 180 min, individual animals, read-out: serum concentration",2000 ng/mL
same,concentration at 11 h,"[1]; rabbit, serum, po, 20 mg OMP per 2 kg, 11 hr, average",102 ng/mL
same,concentration at 1 h,"[1]; rabbit, serum, po, oral, 20 mg OMP per 2 kg, 1 hr, average, read-out: serum concentration, average",330 ng/mL
same,concentration at 1 h,"[1]; rabbit, serum, po, oral, 20 mg OMP per 2 kg, 1 hr, individual animals, read-out: serum concentration",293 ng/mL
same,concentration at 2 h,"[1]; rabbit, serum, po, oral, 20 mg OMP per 2 kg, 2 hr, average, read-out: serum concentration, average",455 ng/mL
same,concentration at 2 h,"[1]; rabbit, serum, po, oral, 20 mg OMP per 2 kg, 2 hr, individual animals, read-out: serum concentration",369 ng/mL
same,concentration at 3 h,"[1]; rabbit, serum, po, oral, 20 mg OMP per 2 kg, 3 hr, average, read-out: serum concentration, average",413 ng/mL
same,concentration at 3 h,"[1]; rabbit, serum, po, oral, 20 mg OMP per 2 kg, 3 hr, individual animals, read-out: serum concentration",425 ng/mL
same,concentration at 4 h,"[1]; rabbit, serum, po, oral, 20 mg OMP per 2 kg, 4 hr, average, read-out: serum concentration, average",477 ng/mL
same,concentration at 4 h,"[1]; rabbit, serum, po, oral, 20 mg OMP per 2 kg, 4 hr, individual animals, read-out: serum concentration",410 ng/mL
same,concentration at 5 h,"[1]; rabbit, serum, po, oral, 20 mg OMP per 2 kg, 5 hr, average, read-out: serum concentration, average",550 ng/mL
same,concentration at 5 h,"[1]; rabbit, serum, po, oral, 20 mg OMP per 2 kg, 5 hr, individual animals, read-out: serum concentration",447 ng/mL
same,concentration at 7 h,"[1]; rabbit, serum, po, oral, 20 mg OMP per 2 kg, 7 hr, average, read-out: serum concentration, average",457 ng/mL
same,concentration at 7 h,"[1]; rabbit, serum, po, oral, 20 mg OMP per 2 kg, 7 hr, individual animals, read-out: serum concentration",521 ng/mL
same,concentration at 9 h,"[1]; rabbit, serum, po, oral, 20 mg OMP per 2 kg, 9 hr, average, read-out: serum concentration, average",357 ng/mL
same,concentration at 9 h,"[1]; rabbit, serum, po, oral, 20 mg OMP per 2 kg, 9 hr, individual animals, read-out: serum concentration",341 ng/mL
same,Tmax,"[1]; rabbit, serum, po, oral, 20 mg OMP per 2 kg, individual animals, read-out: Tmax",4 h
same,half life,[2]; neutral pH,about 14 hrs
same,decomposition,[2]; pH less than 4.0,rapid decomposition
same,stability,[2]; pH more than 7.0,very stable
N=C(N)NCCC[C@H](N)C(=O)O [arginine],stability / contribution to stabilization,[3],stability was more increased
same,stabilizing effect,[4],better stabilizing effect than sodium phosphate
